Measurements from patent US10300042B2, “Apremilast for the treatment of a liver disease or a liver function abnormality” (Celgene Corporation, priority 2014, dated 2019).

Tests used:
[1] = tested on: TNF-α; experiment: Inhibition of TNF-α production in a mouse model; assay type: in vivo
Text: The test methods were as described in WO 03/080049; Muller et al., J. Med. Chem., 1996, 39:3238; and Muller et al., Bioorg. Med. Chem. Lett., 1999, 9:1625-30.

[2] = tested on: Alanine Aminotransferase; experiment: ALT levels in PSOR-008 and PSOR-009 (plaque psoriasis); assay type: in vivo, human; details: for ALT High, % of patients / ALT Low, % of patients / ALT Normal, % of patients: Week 16, 30 mg BID
Procedure: Apremilast was studied in Phase 3 trials in patients with moderate to severe plaque psoriasis. […] The improvement in mild baseline liver function test abnormalities has been observed with apremilast daily use without any prescribed changes in physical activity, social or dietary habits. During the course of the study, there was observed a higher proportion of subjects in the apremilast treatment group (30 mg BID) with normal LFTs (i.e. normal levels of ALT and AST) at subsequent placebo-controlled study visits at week 16. See Tables 11 to 16 from PSOR-008 and PSOR-009 studies.

[3] = tested on: Alanine Aminotransferase; experiment: ALT levels in RA-002 (rheumatoid arthritis); assay type: in vivo, human; details: for ALT High to Normal, percent of patients / ALT Net Benefit / ALT Normal to High, percent of patients: end of treatment (week 16); for ALT High, % of patients / ALT Low, % of patients / ALT Normal, % of patients: Week 16
Procedure: (§1) The improvement in mild baseline liver function test abnormalities has been observed with apremilast daily use without any prescribed changes in physical activity, social or dietary habits. During the course of the study, there was observed a higher proportion of subjects in the 30 mg BID apremilast treatment group with normal LFTs at subsequent placebo-controlled study visits at week 16. See Tables 17 to 24 from RA-002 studies.

[4] = tested on: Aspartate Aminotransferase; experiment: AST levels in RA-002 (rheumatoid arthritis); assay type: in vivo, human; details: for AST High to Normal, percent of patients / AST Net Benefit / AST Normal to High, percent of patients: end of treatment (week 16); for AST High, % of patients / AST Low, % of patients / AST Normal, % of patients: Week 16
Procedure: as §1

[5] = tested on: patients with moderate to severe plaque psoriasis; experiment: Pruritus in ESTEEM 2; assay type: in vivo, human; details: Week 16, 30 mg BID
Procedure: Patients were randomized with Apremilast in an amount of 30 mg twice per day or placebo for the first 16 weeks, and from Weeks 16 to 32, all patients received Apremilast in an amount of 30 mg twice per day.

[6] = 30 BID, end of treatment (week 16)

## CCOc1cc([C@@H](CS(C)(=O)=O)N2C(=O)c3cccc(NC(C)=O)c3C2=O)ccc1OC [Apremilast, (+)-2-[1-(3-ethoxy-4-methoxyphenyl)-2-methylsulfonylethyl]-4-acetylaminoisoindoline-1,3-dione]
[1]
  EC50, TNF-α production: 0.05 mg/kg
[2]; [6]
  ALT High to Normal, percent of patients: 57.1%
  ALT Net Benefit: 53.7%
  ALT Normal to High, percent of patients: 3.7%
[2]; 30 BID, week 16
  ALT High to Normal, Difference (APR 30 BID vs Placebo): 3.1%
  ALT Net Benefit, Difference (APR 30 BID vs Placebo): 17.9%
  ALT Normal to High, Difference (APR 30 BID vs Placebo): −2.1%
[2]; 30 BID, week 16, listed as APR
  ALT High to Normal, Difference (APR 30 BID vs Placebo): 3.1%
[2]; Baseline High
  ALT High, % of patients: 42.9%
  ALT Low, % of patients: 0.0%
  ALT Normal, % of patients: 57.1%
[2]; Baseline Normal
  ALT High, % of patients: 3.7%
  ALT Low, % of patients: 0.0%
  ALT Normal, % of patients: 96.3%
[2]; Baseline Total
  ALT High, % of patients: 7.8%
  ALT Low, % of patients: 0.0%
  ALT Normal, % of patients: 92.2%
[3]; 20 BID
  ALT High to Normal, percent of patients: 25.0%
  ALT Net Benefit: 14.3%
  ALT Normal to High, percent of patients: 4.5%
[3]; 30 BID
  ALT High to Normal, percent of patients: 66.7%
  ALT Net Benefit: 40.0%
  ALT Normal to High, percent of patients: 3.1%
[3]; 30 BID, week 16
  ALT High to Normal, Difference between Placebo and APR 30 BID: 0%
  ALT Net Benefit, Difference between Placebo and APR 30 BID: −26.7%
  ALT Normal to High, Difference between Placebo and APR 30 BID: 3.1%
[3]; 30 BID, week 16, listed as APR
  ALT High to Normal, Difference between Placebo and APR 30 BID: 0.0%
[3]; Baseline High, 20 mg BID
  ALT High, % of patients: 75.0%
  ALT Low, % of patients: 0.0%
  ALT Normal, % of patients: 25.0%
[3]; Baseline High, 30 mg BID
  ALT High, % of patients: 33.3%
  ALT Low, % of patients: 0.0%
  ALT Normal, % of patients: 66.7%
[3]; Baseline Normal, 20 mg BID
  ALT High, % of patients: 4.5%
  ALT Low, % of patients: 0.0%
  ALT Normal, % of patients: 95.5%
[3]; Baseline Normal, 30 mg BID
  ALT High, % of patients: 3.1%
  ALT Low, % of patients: 0.0%
  ALT Normal, % of patients: 96.9%
[3]; Baseline Total, 20 mg BID
  ALT High, % of patients: 8.6%
  ALT Low, % of patients: 0.0%
  ALT Normal, % of patients: 91.4%
[3]; Baseline Total, 30 mg BID
  ALT High, % of patients: 4.5%
  ALT Low, % of patients: 0.0%
  ALT Normal, % of patients: 95.5%
[4]; 20 BID
  AST High to Normal, percent of patients: 50.0%
  AST Net Benefit: 33.3%
  AST Normal to High, percent of patients: 3.0%
[4]; 30 BID
  AST High to Normal, percent of patients: 100.0%
  AST Net Benefit: 50.0%
  AST Normal to High, percent of patients: 4.7%
[4]; 30 BID, week 16
  AST High to Normal, Difference between Placebo and APR 30 BID: 50%
  AST Net Benefit, Difference between Placebo and APR 30 BID: 16.7%
  AST Normal to High, Difference between Placebo and APR 30 BID: 1.7%
[4]; 30 BID, week 16, listed as APR
  AST High to Normal, Difference between Placebo and APR 30 BID: 50.0%
[4]; Baseline High, 20 mg BID
  AST High, % of patients: 50.0%
  AST Low, % of patients: 0.0%
  AST Normal, % of patients: 50.0%
[4]; Baseline High, 30 mg BID
  AST High, % of patients: 0.0%
  AST Low, % of patients: 0.0%
  AST Normal, % of patients: 100.0%
[4]; Baseline Normal, 20 mg BID
  AST High, % of patients: 3.0%
  AST Low, % of patients: 0.0%
  AST Normal, % of patients: 97.0%
[4]; Baseline Normal, 30 mg BID
  AST High, % of patients: 4.7%
  AST Low, % of patients: 0.0%
  AST Normal, % of patients: 95.3%
[4]; Baseline Total, 20 mg BID
  AST High, % of patients: 5.7%
  AST Low, % of patients: 0.0%
  AST Normal, % of patients: 94.3%
[4]; Baseline Total, 30 mg BID
  AST High, % of patients: 4.5%
  AST Low, % of patients: 0.0%
  AST Normal, % of patients: 95.5%
[5]
  Change in Pruritus Visual Analog Scale (mm ± SD): −33.5 (±35.46) mm
